This note sets out measurements from patent US7595405B2, “Tetrazole-substituted arylamides as P2X3 and P2X2/3 antagonists” (Roche Palo Alto LLC, priority 2006, dated 2009).

SMILES strings stand for the structures. pIC50: −log10 of the molar value.

Data set [1] deals with T1, rat P2X3 receptor (Rattus norvegicus, UniProt P49654).
T1 construct: expressed in transfected cells; host or cells: CHO-K1
T1 sequence (P49654 1-397): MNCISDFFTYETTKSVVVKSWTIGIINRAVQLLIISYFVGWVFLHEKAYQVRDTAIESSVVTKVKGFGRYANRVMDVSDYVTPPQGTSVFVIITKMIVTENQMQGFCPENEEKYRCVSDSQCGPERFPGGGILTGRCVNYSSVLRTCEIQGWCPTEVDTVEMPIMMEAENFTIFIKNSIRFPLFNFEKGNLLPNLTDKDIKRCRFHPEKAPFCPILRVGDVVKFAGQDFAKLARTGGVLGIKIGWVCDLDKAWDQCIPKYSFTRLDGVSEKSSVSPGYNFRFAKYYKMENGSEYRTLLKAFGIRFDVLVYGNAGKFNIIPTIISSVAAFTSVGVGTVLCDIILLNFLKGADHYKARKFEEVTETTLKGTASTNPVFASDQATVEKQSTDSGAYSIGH
In words: P2X3 FLIPR (Fluorometric Imaging Plate Reader) assay. It is filed as cell-based. The conditions noted are these: CHO-K1 cells transfected with rat P2X3, agonist α,β-meATP 1 μM. The method, then:
P2X3/P2X2/3 FLIPR (Fluorometric Imaging Plate Reader) Assay
CHO-K1 cells were transfected with cloned rat P2X3 or human P2X2/3 receptor subunits and passaged in flasks. 18-24 hours before the FLIPR experiment, cells were released from their flasks, centrifuged, and resuspended in nutrient medium at 2.5×10^5 cells/ml. The cells were aliquoted into black-walled 96-well plates at a density of 50,000 cells/well and incubated overnight in 5% CO2 at 37° C. On the day of the experiment, cells were washed in FLIPR buffer (calcium- and magnesium-free Hank's balanced salt solution, 10 mM HEPES, 2 mM CaCl2, 2.5 mM probenecid; FB). […]
Test compounds (dissolved in DMSO at 10 mM and serially diluted with FB) or vehicle were added to each well (25 μl of a 4× solution) and allowed to equilibrate for 20 minutes at room temperature. The plates were then placed in the FLIPR and a baseline fluorescence measurement (excitation at 488 nm and emission at 510-570 nm) was obtained for 10 seconds before a 100 μl/well agonist or vehicle addition. […] Fluorescence was measured for an additional 2 minutes at 1 second intervals after agonist addition. A final addition of ionomycin (5 μM, final concentration) was made to each well of the FLIPR test plate to establish cell viability and maximum fluorescence of dye-bound cytosolic calcium. […]

In the case of `Cc1ccc(-c2cc(C(=O)N[C@@H](C)CO)cc(-n3nnnc3CC(C)C)c2)cc1` [5-(5-isobutyl-tetrazol-1-yl)-4′-methyl-biphenyl-3-carboxylic acid ((S)-2-hydroxy-1-methyl-ethyl)-amide], the pIC50 (in general, the IC50 on a negative log10 scale, so that one unit is a factor of ten) in data set [1] is about 8.80.
As for `CCCc1nnnn1-c1cc(C(=O)N[C@@H](C)CO)cc(-c2ccc(Cl)cc2F)c1` [Example 742, 4′-Chloro-2′-fluoro-5-(5-propyl-tetrazol-1-yl)-biphenyl-3-carboxylic acid ((S)-2-hydroxy-1-methyl-ethyl)-amide], the melting point – broadly, the temperature, or range, at which the solid turns liquid – lay within 58 to 60.3 °C.
Same read-out and setting: the result for `CCCc1nnnn1-c1cc(C(=O)NCc2cnc(C)cn2)cc(-c2ccc(Cl)cc2F)c1` [Example 741, 4′-Chloro-2′-fluoro-5-(5-propyl-tetrazol-1-yl)-biphenyl-3-carboxylic acid (5-methyl-pyrazin-2-ylmethyl)-amide] reads 52 to 55 °C.
